From PMC7217877, “N-AS-triggered SPMs are direct regulators of microglia in a model of Alzheimer’s disease” (Nature Communications, 2020)
“And” between values parts separate entries of the source, which are not always exact repeats. Identical values can stand only once.

Test system: neuron
Assay: immunofluorescence of ac-S565 and COX2 in primary cells
Format: cell-based, C57BL/6 mice
Conditions: Ab 10mM, replicates
Method: To confirm the generation and roles of N-AS in neurons, cells from E18 C57BL/6 mice were prepared as previously described. Cortices were dissected and then dissociated followed by incubation in papain (Worthington) at 37 °C for 15 min. Neurons were plated on poly-L-lysine-coated coverslips with neuronal culture medium, serum-free Neurobasal medium (Gibco) containing 2% B27 supplements (Gibco), 1 mM Glutamax supplement (Gibco), and 100 U ml^−1 streptomycin/ 100 U ml^−1 penicillin (Gibco) at 37 °C in a humidified atmosphere of 5% CO2. […] Primary astrocyte cultures were prepared from C57BL/6 mice as described previously. In brief, after removal of the meninges, postnatal day 7 (P7) mouse brain tissues were minced and incubated in a rocking water bath at 37 °C for 30 min in the presence of 0.25% trypsin-EDTA (Sigma-Aldrich). […] The human microglia treated with Aβ 1–42 and/or zileuton was incubated with N-AS (2.5 μM, 2 h, Sigma-Aldrich, 01912), and were analyzed for the generation and roles of N-AS.
Thioflavin S (Sigma-Aldrich) staining was carried out according to previously described procedures. […] The sections were analyzed with a laser-scanning confocal microscope (FV3000; Olympus) or with a BX51 microscope (Olympus). MetaMorph software (Molecular Devices) was used to quantification. Three-dimensional reconstruction of microglia was recorded and analyzed using IMARIS software (Bitplane)[11]. […]

Substance: Ab: Aβ 1–42 (Invitrogen, 03112) used to induce an AD environment in cells
- ac-S565 with COX2, immunofluorescence quantification (Fig 3c): 0.191 and 0.165 and 0.09731 and 0.2737 and 0.2437 and 0.2571
